ChEMBL document CHEMBL1201862, “PubChem BioAssay data set” (2004)
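96-well plates; 48 h exposure; 5 concentrations. Endpoints by linear interpolation between flanking doses. Not reached: highest tested concentration assigned. The concentration for 50% growth inhibition is given as GI50.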 Calls of active or inactive are those of the source. Cut-off read from the data, not from the text of the source: active = GI50 up to about 1.1 µM and inactive = higher. Square brackets hold non-standard residues; d marks the D form. Peptide text beside a SMILES is read from it. ξ: configuration not given here. ξ2Thi = NC(Cc1cccs1)C(=O)O; ξR = N=C(N)NCCCC(N)C(=O)O; ξI = CCC(C)C(N)C(=O)O; ξL = CC(C)CC(N)C(=O)O; ξK = NCCCCC(N)C(=O)O; ξT = CC(O)C(N)C(=O)O; ξA = CC(N)C(=O)O

Legend:
Assay in all cases: inhibition of tumour cell growth, NCI panel, 48 h
[1] = tested on: MDA-N
[2] = tested on: HCT-15
[3] = tested on: SK-OV-3
[4] = tested on: Malme-3M
[5] = tested on: OVCAR-8
[6] = tested on: OVCAR-5
[7] = tested on: CCRF-CEM
[8] = tested on: COLO 205
[9] = tested on: A498
[10] = tested on: HT-29
[11] = tested on: U-251
[12] = tested on: SF-268
[13] = tested on: RPMI-8226
[14] = tested on: NCI-H226
[15] = tested on: SK-MEL-28
[16] = tested on: SF-295
[17] = tested on: RXF 393
[18] = tested on: HCT-116
[19] = tested on: MCF7
[20] = tested on: TK-10

| SMILES | GI50 [1] | GI50 [2] [µM] | GI50 [3] | GI50 [4] | GI50 [5] | GI50 [6] | GI50 [7] | GI50 [8] | GI50 [9] | GI50 [10] | GI50 [11] | GI50 [12] | GI50 [13] | GI50 [14] | GI50 [15] | GI50 [16] | GI50 [17] | GI50 [18] | GI50 [19] | GI50 [20] |
| --- | --- | --- | --- | --- | --- | --- | --- | --- | --- | --- | --- | --- | --- | --- | --- | --- | --- | --- | --- | --- |
| CCC(C)C(NC(=O)C(Cc1cccs1)NC(=O)C(CC(C)C)NC(=O)C(CC(C)C)NC(=O)C(CCCCN)NC(=O)C(CCCN=C(N)N)NC(=O)[C@H](Cc1ccc(O)cc1)NC(=O)C(NC(=O)C(C)NC(=O)C(N)CC(C)C)C(C)O)C(=O)NC(CC(C)C)C(N)=O (stereo not given in full) (H-[ξL][ξA][ξT]Y[ξR][ξK][ξL][ξL][ξ2Thi][ξI][ξL]-NH2) | > 50 µM (inactive) | > 50 | > 50 µM (inactive) | > 50 µM (inactive) | > 50 µM (inactive) | > 50 µM (inactive) | > 50 µM (inactive) | > 50 µM (inactive) | > 50 µM (inactive) | > 50 µM (inactive) | > 50 µM (inactive) | > 50 µM (inactive) | > 50 µM (inactive) | > 50 µM (inactive) | > 50 µM (inactive) | > 50 µM (inactive) | > 50 µM (inactive) | > 50 µM (inactive) | > 50 µM (inactive) | > 50 µM (inactive) |
| C=C(C)C(=O)O[C@@H]1C[C@@]2(C)O[C@@H]2C[C@H](O)/C(C)=C/[C@H]2OC(=O)C(=C)[C@@H]21 | 50 µM (inactive) | 30.9 | > 100 µM (inactive) | 24.5 µM (inactive) | 40.6 µM (inactive) | > 100 µM (inactive) | 17.3 µM (inactive) | 42 µM (inactive) | > 100 µM (inactive) | 61.5 µM (inactive) | > 100 µM (inactive) | > 100 µM (inactive) | 40.1 µM (inactive) | > 100 µM (inactive) | 22.4 µM (inactive) | > 100 µM (inactive) | 33.3 µM (inactive) | 33.7 µM (inactive) | 35.8 µM (inactive) | > 100 µM (inactive) |
| COc1cc2c(c(OC)c1)C(=O)O[C@H](C)CCCC/C=C/C2 | 8.63 µM (inactive) | 10.2 | 45.9 µM (inactive) | 13.1 µM (inactive) | 33.3 µM (inactive) | 15.1 µM (inactive) | 2.26 µM (inactive) | 10.9 µM (inactive) | 39.7 µM (inactive) | 35 µM (inactive) | 9.79 µM (inactive) | 8.17 µM (inactive) | 9.12 µM (inactive) | 45.6 µM (inactive) | 23.2 µM (inactive) | 13.6 µM (inactive) | 9.95 µM (inactive) | 8.61 µM (inactive) | 11.6 µM (inactive) | 15.8 µM (inactive) |
| NC(=O)C1=CC2C3C=CC2(O)C(=O)OC3O1 (stereo not given) | 2.61 µM (inactive) | 3.39 | 13.5 µM (inactive) | 1.82 µM (inactive) | 2.46 µM (inactive) | 22.8 µM (inactive) | 1.8 µM (inactive) | 3.71 µM (inactive) | 32.7 µM (inactive) | 2.92 µM (inactive) | 8.59 µM (inactive) | 3.73 µM (inactive) | 1.57 µM (inactive) | 2.31 µM (inactive) | 2.34 µM (inactive) | 11.9 µM (inactive) | 2.52 µM (inactive) | 2.62 µM (inactive) | 3.28 µM (inactive) | 4.07 µM (inactive) |
| O=S(=O)(/N=C(\NO)Nc1ccc(Cl)cc1)C1CC=C(c2ccon2)S1 (stereo not given) | 6.04 µM (inactive) | 15.5 | > 100 µM (inactive) | 1.55 µM (inactive) | 8.77 µM (inactive) | > 66.2 µM (inactive) | 12.2 µM (inactive) | 15.7 µM (inactive) | 7.24 µM (inactive) | 42.7 µM (inactive) | 15.8 µM (inactive) | 14.7 µM (inactive) | 6.07 µM (inactive) | 13.4 µM (inactive) | 23.5 µM (inactive) | 40.7 µM (inactive) | 6.31 µM (inactive) | 15.6 µM (inactive) | 16.1 µM (inactive) | 14.4 µM (inactive) |
| COC(=O)[C@H](CCSC)NC(=O)c1ccc(CNC(=O)/C(C)=C/c2ccccc2)cc1 | 55.6 µM (inactive) | > 100 | 39.4 µM (inactive) | 15.3 µM (inactive) | 23.3 µM (inactive) | 97.1 µM (inactive) | > 100 µM (inactive) | > 100 µM (inactive) | > 100 µM (inactive) | 21 µM (inactive) | 31 µM (inactive) | 25.8 µM (inactive) | > 100 µM (inactive) | > 100 µM (inactive) | 24.7 µM (inactive) | 48.5 µM (inactive) | 15.8 µM (inactive) | 50.9 µM (inactive) | 80.2 µM (inactive) | > 100 µM (inactive) |
| CCOC(=O)c1nc2ccc(C(F)(F)F)cc2nc1Oc1ccc(OC)cc1 | > 100 µM (inactive) | > 100 | > 100 µM (inactive) | 62.8 µM (inactive) | > 100 µM (inactive) | > 100 µM (inactive) | > 100 µM (inactive) | > 100 µM (inactive) | > 100 µM (inactive) | > 100 µM (inactive) | > 100 µM (inactive) | > 100 µM (inactive) | > 100 µM (inactive) | > 100 µM (inactive) | > 100 µM (inactive) | > 100 µM (inactive) | > 100 µM (inactive) | > 100 µM (inactive) | > 100 µM (inactive) | > 100 µM (inactive) |
| C=C(C)C(CC=C(C)C)Cc1c(O)cc(OC)c2c1OC(c1ccc(O)cc1O)C(O)C2=O (stereo not given) | 14.9 µM (inactive) | 17 | 16.8 µM (inactive) | 17.7 µM (inactive) | 17 µM (inactive) | 17.7 µM (inactive) | 50.8 µM (inactive) | 16.3 µM (inactive) | 16.5 µM (inactive) | 20.7 µM (inactive) | 14.5 µM (inactive) | 18.6 µM (inactive) | > 100 µM (inactive) | 18.3 µM (inactive) | 21.1 µM (inactive) | 15 µM (inactive) | 19 µM (inactive) | 17.3 µM (inactive) | 13.2 µM (inactive) | 21.8 µM (inactive) |
| COC(=O)c1cc2c3c(cc(NCCN)c2[nH]1)N(C(=O)c1cc2cc(OC)c(OC)c(OC)c2[nH]1)CC3CCl (stereo not given) | 0.0811 µM (active) | 0.573 | 0.273 µM (active) | 0.0377 µM (active) | 0.109 µM (active) | 0.0393 µM (active) | 0.0174 µM (active) | 0.0559 µM (active) | 0.131 µM (active) | 0.0277 µM (active) | 0.0144 µM (active) | 0.0213 µM (active) | 0.25 µM (active) | 0.0177 µM (active) | 0.109 µM (active) | 0.228 µM (active) | 0.0301 µM (active) | 0.0198 µM (active) | 0.014 µM (active) | 0.366 µM (active) |
| COc1cc(CNc2c3ccccc3nc3ccccc23)cc(OC)c1OC | 2.76 µM (inactive) | 2.97 | 5.47 µM (inactive) | 3.71 µM (inactive) | 3.79 µM (inactive) | 3.92 µM (inactive) | 1.57 µM (inactive) | 1.69 µM (inactive) | 1.82 µM (inactive) | 2.49 µM (inactive) | 5.08 µM (inactive) | 4.07 µM (inactive) | 2.82 µM (inactive) | 3.15 µM (inactive) | 5.04 µM (inactive) | 3.56 µM (inactive) | 2.86 µM (inactive) | 1.44 µM (inactive) | 5.48 µM (inactive) | 5.53 µM (inactive) |
| CCOC(=O)c1nnsc1NC(=O)NN | > 100 µM (inactive) | > 100 | > 100 µM (inactive) | > 100 µM (inactive) | > 100 µM (inactive) | > 100 µM (inactive) | > 100 µM (inactive) | > 100 µM (inactive) | > 100 µM (inactive) | > 100 µM (inactive) | > 100 µM (inactive) | > 100 µM (inactive) | > 100 µM (inactive) | > 100 µM (inactive) | > 100 µM (inactive) | > 100 µM (inactive) | > 100 µM (inactive) | > 100 µM (inactive) | > 100 µM (inactive) | > 100 µM (inactive) |
| C(/Cc1ccc2c(c1)OCO2)=N\N=C1NCCCN1 | > 100 µM (inactive) | > 100 | 42.1 µM (inactive) | 64.4 µM (inactive) | > 100 µM (inactive) | 59 µM (inactive) | 48.5 µM (inactive) | 57 µM (inactive) | 19.5 µM (inactive) | 65.5 µM (inactive) | 75.7 µM (inactive) | 93.8 µM (inactive) | 56.1 µM (inactive) | > 100 µM (inactive) | > 100 µM (inactive) | 38.2 µM (inactive) | 42.9 µM (inactive) | 46.2 µM (inactive) | 26.9 µM (inactive) | > 100 µM (inactive) |
| CCOc1cc(-c2nc3cc(F)ccc3s2)ccc1O | 15.8 µM (inactive) | 14.9 | 18.7 µM (inactive) | 15.3 µM (inactive) | 15.8 µM (inactive) | 18.7 µM (inactive) | 0.6 µM (active) | 19.7 µM (inactive) | 12.6 µM (inactive) | 18.1 µM (inactive) | 19.5 µM (inactive) | 15.7 µM (inactive) | 10.7 µM (inactive) | 17 µM (inactive) | 27.6 µM (inactive) | 20 µM (inactive) | 18.6 µM (inactive) | 20.6 µM (inactive) | 5.64 µM (inactive) | 18.7 µM (inactive) |
| Cc1ccc(S(=O)(=O)N/C(=N\O)Nc2ccc(Cl)c(Cl)c2)cc1 | 3.57 µM (inactive) | 6.67 | 15 µM (inactive) | 2.07 µM (inactive) | 8.04 µM (inactive) | 3.2 µM (inactive) | 2.42 µM (inactive) | 17.1 µM (inactive) | 10.3 µM (inactive) | 12.8 µM (inactive) | 4.36 µM (inactive) | 6.01 µM (inactive) | 10.1 µM (inactive) | 17.1 µM (inactive) | 3.34 µM (inactive) | 17.2 µM (inactive) | 9.84 µM (inactive) | 5.31 µM (inactive) | 17.5 µM (inactive) | 14.6 µM (inactive) |
